{
  "source": "patent US20040087606A1",
  "about": "“Shivering suppression during cooling to lower body temperature” (priority 2002, published 2004)",
  "type_in_all_cases": "in vivo, human",
  "key": {"healthy subjects [1]": {"tested_on": "healthy subjects", "experiment": "Phase 4: as Phase 3a, meperidine plus oral buspirone", "protocol": "(§1) Five contact pads are applied to the thighs, back and abdomen of each subjects, and actively cooled. Temperatures are measured in the same manner as in Phase 1 except that the rectal temperature probe is connected to a control module and the rectal temperature signal is used by the control module to adjust inlet water temperature via a feedback control algorithm to achieve a target core body temperature of 34.5° C.\n(§2) A single oral dose of acetaminophen (1000 mg), is administered within 20 minutes prior to treatment. A bolus of IV meperidine (Demerol®, 50-100 mg) is given within 5 minutes of the start of active cooling. Additional doses of meperidine are administered to maintain comfort and to prevent shivering. Active cooling and maintenance of hypothermia continues for five hours. As in the Phase 1, the subjects are actively re-warmed to a tympanic temperature of 36° C. prior to termination of the experiment. Shivering, comfort, oxyhemoglobin saturation, and arterial blood pressure are recorded as in Phase 1.\nPhase 4 proceeds as described for Phase 3a, except as noted. In addition to meperidine (Demerol®), subjects are also given an oral dose of 30-60 mg buspirone."}, "healthy subjects [2]": {"tested_on": "healthy subjects", "experiment": "Phase 3a: contact-pad cooling to target core temperature 34.5° C. with meperidine", "source_text": "(§3) Mild hypothermia is induced and maintained in healthy subjects for up to several hours. Each volunteer is cooled using contact pads (Arctic Sun Energy Transfer Pads™, Medivance, Inc., Louisville, Colo., U.S.A.). Contact pads are applied to contact the subjects, and water at a controlled temperature is delivered to and circulated through the contact pads to effect the controlled cooling of each volunteer.\nas §1, §2"}, "healthy subjects [3]": {"tested_on": "healthy subjects", "experiment": "Phase 5: as Phase 3a, meperidine plus IV ondansetron", "protocol": "as §1, §2\nPhase 5 proceeds as described for Phase 3a, except as noted. The temperature of water circulated to the contact pads is controlled to achieve a target core body temperature of 34.5° C. In addition to meperidine (Demerol®), subjects are also given an IV dose of 8 mg ondansetron (hydrochloride salt, Glaxo Wellcome)."}, "healthy subjects [4]": {"tested_on": "healthy subjects", "experiment": "Phases 1 and 3a taken together: haemodynamics, comfort, respiratory compromise, nausea", "protocol": "(§4) Four contact pads are applied to the thighs and chest of each subject and each subject is rapidly cooled with an objective of reducing core body temperature to 34-35° C. Core body temperatures are measured at the tympanic membrane and the rectum. Mean skin-surface temperature is determined from the weighted average of calf, thigh, chest, and upper arm skin temperatures. Thermoregulatory vasoconstriction is evaluated using forearm minus fingertip skin-temperature gradients. Temperatures are measured using Mon-a-Therm™ themocouple probes connected to Mallinckrodt Model 6510 two-channel electronic thermometers having an accuracy near 0.1° C. (Mallinckrodt Anesthesia Products, St. Louis, Mo., U.S.A.). Temperatures are recorded before cooling is started (i.e., baseline) and subsequently at 15-minute intervals.\n(§5) Each of subjects 1-5 is administered a single dose of acetomiophen (1000 mg) within 20 minutes prior to treatment and is administered a bolus of intravenous (IV) meperidine (Demerol®, 25-75 mg) within 5 minutes of the start of cooling. Subjects also receive initial doses of chlorpromazine (Thorazine®12.5-25 mg, IV). Active cooling is initiated and the inlet water temperature is controlled to achieve a target tympanic temperature between 34° C. and 35° C. Additional doses of meperidine and/or chloropromazine are administered to maintain comfort and to prevent shivering. Active cooling and maintenance of hypothermia continues for up to five hours, after which subjects are actively re-warmed to a tympanic temperature of 36° C.\n(§6) The presence of shivering is noted by physical examination, electromyographic artifact on continuous electrocardiography (ECG), or by subject report. Overall thermal comfort is evaluated at 15-min intervals with a 100-mm-long visual analog scale (VAS) on which 0 mm defines the worst imaginable cold, 50 mm identifies thermal neutrality, and 100 mm indicates unbearable heat. A new, unmarked scale is used for each assessment. Heart rate and oxyhemoglobin saturation are monitored using ECG and pulse oximetry; arterial blood pressure is recorded oscillometrically at 15-minute intervals.\nas §1, §2"}, "healthy subjects [5]": {"tested_on": "healthy subjects", "experiment": "Phase 1: induced mild hypothermia by contact-pad cooling with meperidine for shivering suppression", "source_text": "as §3, §4, §5, §6"}, "[6]": {"conditions": "Phase 4, individual subjects, meperidine plus oral buspirone 30-60 mg"}, "[7]": {"conditions": "Phase 4, mean ± SD, 4 subjects, meperidine plus buspirone"}, "[8]": {"conditions": "individual subjects, meperidine"}, "[9]": {"conditions": "Phase 5, individual subjects, meperidine plus IV ondansetron 8 mg"}, "[10]": {"conditions": "Phase 5, mean ± SD, 4 subjects, meperidine plus ondansetron"}},
  "note": "Several values for one entry are separate records, joined by “and”; a condition that tells them apart may be missing. Equal values may be shown once.",
  "data": [
    {"smiles": "CCOC(=O)C1(c2ccccc2)CCN(C)CC1", "note": "[meperidine]", "values": [
      {"measurement": "Cooling rate to 35° C.", "setting": "healthy subjects [1]; [6]", "result": "1.1 ° C./hr (2×) and 1.9 ° C./hr and 0.8 ° C./hr"},
      {"measurement": "Nausea or Vomiting During Treatment", "setting": "healthy subjects [1]; [6]", "result": "Nausea early, and Vomiting end and None and Nausea mid and Nausea end"},
      {"measurement": "Time to 35° C.", "setting": "healthy subjects [1]; [6]", "result": "105 min and 95 min and 63 min and 158 min"},
      {"measurement": "Total Meperidine Dose", "setting": "healthy subjects [1]; Phase 4, individual subjects, with oral buspirone 30-60 mg", "result": "250 mg (3×) and 400 mg"},
      {"measurement": "Mean cooling rate to 35° C.", "setting": "healthy subjects [1]; [7]", "result": "1.2 ± .5 ° C./hr"},
      {"measurement": "Mean time to 35° C.", "setting": "healthy subjects [1]; [7]", "result": "105 ± 39", "unit": "min"},
      {"measurement": "Mean total meperidine dose", "setting": "healthy subjects [1]; Phase 4, mean ± SD, 4 subjects, with buspirone", "result": "288 ± 75", "unit": "mg"},
      {"measurement": "Total Meperidine Dose", "setting": "healthy subjects [2]; individual subjects, as needed to maintain comfort and prevent shivering, five hours", "result": "400 mg and 500 mg and 350 mg (2×) and 250 mg"},
      {"measurement": "Cooling rate to 35° C.", "setting": "healthy subjects [2]; [8]", "result": "1.9 ° C./hr and .9 ° C./hr and 1.2 ° C./hr and 1.7 ° C./hr and 1.4 ° C./hr"},
      {"measurement": "Nausea or Vomiting During Treatment", "setting": "healthy subjects [2]; [8]", "result": "Nausea end (2×) and None and Nausea early, and Nausea, and vomiting mid"},
      {"measurement": "Time to 35° C.", "setting": "healthy subjects [2]; individual subjects, tympanic temperature, IV meperidine 50-100 mg bolus plus additional doses, acetaminophen 1000 mg", "result": "64 min and 180 min and 95 min and 56 min and 53 min"},
      {"measurement": "Mean cooling rate to 35° C.", "setting": "healthy subjects [2]; mean ± SD, 5 subjects", "result": "1.4±0.4 ° C./hr and 1.4 ± .4 ° C./hr"},
      {"measurement": "Mean time to reach a tympanic temperature of 35° C.", "setting": "healthy subjects [2]; mean ± SD, 5 subjects", "result": "90 ± 53", "unit": "min"},
      {"measurement": "Mean total dosage of meperidine", "setting": "healthy subjects [2]; mean ± SD, 5 subjects", "result": "370 ± 91 mg and 370 mg"},
      {"measurement": "Attainment of mild hypothermia", "setting": "healthy subjects [3]; Phase 5", "result": "attained in all subjects"},
      {"measurement": "Cooling rate to 35° C.", "setting": "healthy subjects [3]; [9]", "result": "1.5 ° C./hr and 1.4 ° C./hr and 1.6 ° C./hr and 1.9 ° C./hr"},
      {"measurement": "Nausea or Vomiting During Treatment", "setting": "healthy subjects [3]; [9]", "result": "None (2×) and Nausea post and Nausea and vomiting"},
      {"measurement": "Time to 35° C.", "setting": "healthy subjects [3]; [9]", "result": "80 min and 58 min and 88 min and 60 min"},
      {"measurement": "Total Meperidine Dose", "setting": "healthy subjects [3]; Phase 5, individual subjects, with IV ondansetron 8 mg", "result": "275 mg and 250 mg and 325 mg and 375 mg"},
      {"measurement": "Mean cooling rate to 35° C.", "setting": "healthy subjects [3]; [10]", "result": "1.6 ° C./hr and 1.6 ± .2 ° C./hr"},
      {"measurement": "Mean time to reach a tympanic temperature of 35.0° C.", "setting": "healthy subjects [3]; [10]", "result": "72 ± 15", "unit": "min"},
      {"measurement": "Mean total dosage of meperidine", "setting": "healthy subjects [3]; Phase 5, mean ± SD, 4 subjects, with ondansetron", "result": "306 ± 55", "unit": "mg"},
      {"measurement": "Withdrawal of a subject for adverse reaction to meperidine", "setting": "healthy subjects [3]; Phase 5, one of five enrolled, caused a facial rash", "result": "mild allergic reaction"},
      {"measurement": "Systolic blood pressure", "setting": "healthy subjects [4]; 180 min timepoint, baseline 122±13, p=0.042", "result": "140±20", "unit": "mm Hg"},
      {"measurement": "Respiratory compromise", "setting": "healthy subjects [4]; Phases 1 and 3a", "result": "no respiratory compromise is observed"},
      {"measurement": "Subjects in whom nausea is observed", "setting": "healthy subjects [4]; Phases 1 and 3a, all cases in Phase 3a", "result": 30, "unit": "%"},
      {"measurement": "Change in blood oxygenation compared with baseline", "setting": "healthy subjects [4]; all subjects, during cooling", "result": "no statistically significant change"},
      {"measurement": "Change in diastolic blood pressure compared with baseline", "setting": "healthy subjects [4]; all subjects, during cooling", "result": "no statistically significant change"},
      {"measurement": "Change in heart rate compared with baseline", "setting": "healthy subjects [4]; all subjects, during cooling", "result": "no statistically significant change"},
      {"measurement": "Attainment of mild hypothermia", "setting": "healthy subjects [5]; Phase 1", "result": "attained in all subjects"},
      {"measurement": "Total Meperidine Dose", "setting": "healthy subjects [5]; Phase 1, individual subjects, given as needed to maintain comfort and prevent shivering, up to five hours", "result": "275 mg and 375 mg and 475 mg and 75 mg and 200 mg"},
      {"measurement": "Nausea or Vomiting During Treatment", "setting": "healthy subjects [5]; Phase 1, individual subjects, meperidine", "result": "Pruritis and None (4×)"},
      {"measurement": "Cooling rate to 35° C.", "setting": "healthy subjects [5]; Phase 1, individual subjects, meperidine for shivering suppression", "result": "1.4 ° C./hr and 1.0 ° C./hr and 1.5 ° C./hr and 2.6 ° C./hr and 1.2 ° C./hr"},
      {"measurement": "Time to 35° C.", "setting": "healthy subjects [5]; Phase 1, individual subjects, tympanic temperature, IV meperidine 25-75 mg bolus plus additional doses, acetaminophen 1000 mg, chlorpromazine in subjects 1 and 2", "result": "81 min and 105 min and 78 min and 41 min and 82 min"},
      {"measurement": "Mean cooling rate to 35° C.", "setting": "healthy subjects [5]; Phase 1, mean ± SD, 5 subjects", "result": "1.5±0.6 ° C./hr and 1.5 ± .6 ° C./hr"},
      {"measurement": "Mean time to reach a tympanic temperature of 35° C.", "setting": "healthy subjects [5]; Phase 1, mean ± SD, 5 subjects", "result": "77+23 min and 77 ± 23 min"},
      {"measurement": "Mean total dosage of meperidine", "setting": "healthy subjects [5]; Phase 1, mean ± SD, 5 subjects", "result": "280 ± 155 mg and 280 mg"}
    ]},
    {"smiles": "Cc1nccn1CC1CCc2c(c3ccccc3n2C)C1=O", "note": "(stereo not drawn) [ondansetron]", "values": [
      {"measurement": "Meperidine administration in Phase 5 relative to Phase 3a", "setting": "healthy subjects [3]; p=0.26, t-test, ondansetron 8 mg IV", "result": "trend toward less meperidine administration"}
    ]},
    {"smiles": "O=C1CC2(CCCC2)CC(=O)N1CCCCN1CCN(c2ncccn2)CC1", "note": "[buspirone]", "values": [
      {"measurement": "Effect on incidence of nausea", "setting": "healthy subjects [1]; in vivo", "result": "did not reduce the incidence of nausea"}
    ]}
  ]
}
